Assay [1] deals with T1, Human immunodeficiency virus type 1 protease (Human immunodeficiency virus 1, UniProt Q72874). The assay is described as follows: Binding affinity against HIV-1 protease.
In assay [2] the target is Human immunodeficiency virus type 1 protease (Human immunodeficiency virus 1) (UniProt Q72874).
Description: Inhibitory concentration for antiviral activity against MT-4/HIV-1IIIB cell culture
Assay [3] concerns the target T1, Human immunodeficiency virus type 1 protease. The assay is described as follows: Binding affinity towards HIV protease.

The values that follow come from ChEMBL document CHEMBL1129342, “Structure-based design of novel HIV protease inhibitors: sulfonamide-containing 4-hydroxycoumarins and 4-hydroxy-2-pyrones as potent non-peptidic inhibitors” (J Med Chem, 1996).

Each structure is given as a SMILES string.

With `O=c1cc(C(CC2CC2)CC2CC2)oc(O)c1C(c1cccc(NS(=O)(=O)c2cccc3cccnc23)c1)C1CC1` (stereo not given), affinity in assay [1] was put at a Ki of 5.3 nM. For the same compound, in assay [2], the 90% effect concentration (IC90) – broadly, the point of the concentration-response curve where the effect stands at 90% – stood at 6500 nM.

In the case of `O=c1cc(C(CC2CC2)CC2CC2)oc(O)c1C(c1cccc(NS(=O)(=O)c2ccccc2)c1)C1CC1` (stereo not given), affinity in assay [1] was put at a Ki of 23 nM. This compound had a concentration for an effect of 90% (IC90) in assay [2] of 12100 nM.

Regarding `Cc1cc(O)c(C(c2cccc(NS(=O)(=O)c3cn(C)cn3)c2)C2CC2)c(=O)o1` (stereo not given), the inhibitory constant (Ki) (in general, the dissociation constant of the complex between target and ligand, obtained from inhibition or displacement) in assay [1] turned out to be 14 nM.

With `CCC(Cc1ccccc1)c1cc(O)c(C(c2cccc(NS(=O)(=O)c3ccc(Cl)cc3)c2)C2CC2)c(=O)o1` (stereo not given), the affinity in assay [1], expressed as Ki, was 15 nM. Also, in assay [2], the IC90 turned out to be 6200 nM.

As to `Cn1cnc(S(=O)(=O)Nc2cccc(C(c3c(O)cc(C(CC4CC4)CC4CC4)oc3=O)C3CC3)c2)c1` (racemic), the 90% effect level in assay [2] (IC90) was put at 4600 nM.

Compound `CCC(Cc1ccccc1)c1cc(O)c(C(c2cccc(NS(=O)(=O)c3ccc(OC)cc3)c2)C2CC2)c(=O)o1` (stereo not given) returned a Ki in assay [1] of 22 nM. The 90% effect level in assay [2] (IC90) was put at 7600 nM.

On to `CCC(Cc1ccccc1)c1cc(O)c(C(c2cccc(NS(=O)(=O)c3cn(C)cn3)c2)C2CC2)c(=O)o1` (single isomer, unassigned; diastereomer 4) [listing 1 of 2 here], for which affinity in assay [1] was put at a Ki of 1.4 nM.

On to `CCC(Cc1ccccc1)c1cc(O)c(C(c2cccc(NC(=O)Cc3cccnc3)c2)C2CC2)c(=O)o1` (stereo not given), for which affinity in assay [3] was put at a Ki of 44 nM.

With `Cn1cnc(S(=O)(=O)Nc2cccc(C(c3c(O)cc(C(CC4CC4)CC4CC4)oc3=O)C3CC3)c2)c1` (single isomer, unassigned; enantiomer 2), the concentration for an effect of 90% (IC90) in assay [2] stood at 6900 nM.

For the compound `CCC(Cc1ccccc1)c1cc(O)c(C(c2cccc(NS(=O)(=O)c3cccc4cccnc34)c2)C2CC2)c(=O)o1` (stereo not given), the Ki in assay [1] was 3.5 nM. In assay [2], this compound displayed a concentration for an effect of 90% (IC90) of 6000 nM.

With `CCC(Cc1ccccc1)c1cc(O)c(C(c2cccc(NS(=O)(=O)c3ccc(C#N)cc3)c2)C2CC2)c(=O)o1` (stereo not given), the inhibition constant (Ki) in assay [1] was determined as 5.7 nM. Moreover, in assay [2], the IC90 amounted to 9900 nM.

On to `CCC(Cc1ccccc1)c1cc(O)c(C(c2cccc(NS(=O)(=O)c3cn(C)cn3)c2)C2CC2)c(=O)o1` (single isomer, unassigned; diastereomer 2) [listing 1 of 2 here], for which the 90% effect concentration (IC90) in assay [2] worked out at 5700 nM.

For the compound `N#Cc1ccc(S(=O)(=O)Nc2cccc(C(c3c(O)oc(C(CC4CC4)CC4CC4)cc3=O)C3CC3)c2)cc1` (stereo not given), in assay [1], the inhibition constant (Ki) came out at 5.4 nM. The same compound registered an IC90 in assay [2] of 8900 nM.

In turn, `CCCS(=O)(=O)Nc1cccc(C(c2c(O)cc(C(CC)Cc3ccccc3)oc2=O)C2CC2)c1` (stereo not given) registered an inhibition constant Ki in assay [1] of 40 nM. The same compound yielded a 90% effect concentration (IC90) in assay [2] of 11100 nM.

`CCC(Cc1ccccc1)c1cc(O)c(C(c2cccc(NS(=O)(=O)c3ccccc3)c2)C2CC2)c(=O)o1` (stereo not given) returned an inhibition constant (Ki) in assay [1] of 17 nM. The compound further had an IC90 in assay [2] of 7600 nM.

`CCC(CC1CCOCC1)c1cc(O)c(C(c2cccc(NS(=O)(=O)c3cn(C)cn3)c2)C2CC2)c(=O)o1` (stereo not given) gave an inhibitory constant (Ki) in assay [1] of 0.48 nM.

For the compound `COc1ccc2c(O)c(C(c3cccc(NS(=O)(=O)c4ccc(C#N)cc4)c3)C3CC3)c(=O)oc2c1` (stereo not given), in assay [1], the Ki was 5.8 nM.

Compound `O=c1cc(C(CC2CC2)CC2CC2)oc(O)c1C(c1cccc(NS(=O)(=O)c2ccc(F)cc2)c1)C1CC1` (stereo not given) showed a Ki in assay [1] of 16 nM. Also, the 90% effect level in assay [2] (IC90) was put at 8000 nM.

Compound `CCC(Cc1ccccc1)c1cc(O)c(C(c2cccc(NS(=O)(=O)c3cn(C)cn3)c2)C2CC2)c(=O)o1` (mixture of isomers) [listing 1 of 2 here] registered an IC90 in assay [2] of 4100 nM.

In assay [3], `CCC(Cc1ccccc1)c1cc(O)c(C(c2cccc(NC(=O)C(Cc3c[nH]cn3)NC(=O)OC(C)(C)C)c2)C2CC2)c(=O)o1` (stereo not given) yielded a Ki of 4 nM.

As for `CCC(Cc1ccccc1)c1cc(O)c(C(c2cccc(NS(=O)(=O)c3cn(C)cn3)c2)C2CC2)c(=O)o1` (single isomer, unassigned; diastereomer 4) [listing 2 of 2 here], the 90% effect level in assay [2] (IC90) was put at 6000 nM.

For `COc1ccc2c(O)c(C(c3cccc(NS(=O)(=O)c4cn(C)cn4)c3)C3CC3)c(=O)oc2c1` (stereo not given), the affinity in assay [1] corresponds to a Ki of 0.7 nM.

`CCC(CC)c1cc(O)c(C(c2cccc(NS(=O)(=O)c3cn(C)cn3)c2)C2CC2)c(=O)o1` (stereo not given): the affinity in assay [1] corresponds to a Ki of 0.54 nM.

Compound `CCC(Cc1ccccc1)c1cc(O)c(C(c2cccc(NS(=O)(=O)c3cn(C)cn3)c2)C2CC2)c(=O)o1` (mixture of isomers) [listing 2 of 2 here] registered an inhibition constant (Ki) in assay [1] of 1.3 nM.

In assay [1], `Cn1cnc(S(=O)(=O)Nc2cccc(C(c3c(O)cc(CCc4ccccc4)oc3=O)C3CC3)c2)c1` (stereo not given) had an inhibitory constant (Ki) of 0.97 nM.

As to `CCC(Cc1ccccc1)c1cc(O)c(C(c2cccc(NS(=O)(=O)c3cn(C)cn3)c2)C2CC2)c(=O)o1` (single isomer, unassigned; diastereomer 2) [listing 2 of 2 here], in assay [1], the inhibition constant (Ki) is 0.73 nM.

Turning to `CCC(Cc1ccccc1)c1cc(O)c(C(c2cccc(NS(=O)(=O)c3cn(C)cn3)c2)C2CC2)c(=O)o1` (single isomer, unassigned; diastereomer 1) [listing 1 of 2 here], the inhibition constant (Ki) in assay [1] was 0.52 nM.

`CCC(Cc1ccccc1)c1cc(O)c(C(c2cccc(NS(=O)(=O)c3cn(C)cn3)c2)C2CC2)c(=O)o1` (single isomer, unassigned; diastereomer 3) [listing 1 of 2 here]: it took 6800 nM to reach the 90% level in assay [2] (IC90).

`CCC(c1cccc(NC(=O)CCNC2C=Cc3ccccc32)c1)c1c(O)oc2ccccc2c1=O` (stereo not given) registered an inhibitory constant (Ki) in assay [3] of 110 nM.

Consider `COCCOCCC(CCOCCOC)c1cc(O)c(C(c2cccc(NS(=O)(=O)c3cn(C)cn3)c2)C2CC2)c(=O)o1` (stereo not given), for which the Ki in assay [1] was found to be 4.2 nM.

In turn, `COc1ccc2c(O)c(C(c3cccc(NS(=O)(=O)c4ccc(F)cc4)c3)C3CC3)c(=O)oc2c1` (stereo not given) had a Ki in assay [1] of 7.7 nM.

`COc1ccc2c(O)c(C(c3cccc(NS(=O)(=O)c4cccc5cccnc45)c3)C3CC3)c(=O)oc2c1` (stereo not given) returned a Ki in assay [1] of 4.9 nM.

In the case of `COCCOCCCc1cc(O)c(C(c2cccc(NS(=O)(=O)c3cn(C)cn3)c2)C2CC2)c(=O)o1` (stereo not given), the affinity in assay [1], expressed as Ki, was 1.6 nM.

As to `CCC(CCOCCOC)c1cc(O)c(C(c2cccc(NS(=O)(=O)c3cn(C)cn3)c2)C2CC2)c(=O)o1` (stereo not given), affinity in assay [1] was put at a Ki of 0.88 nM.

As to `CCC(Cc1ccccc1)c1cc(O)c(C(c2cccc(NS(=O)(=O)c3cccnc3)c2)C2CC2)c(=O)o1` (stereo not given), the Ki in assay [1] came out at 12 nM. In assay [2], this compound displayed a concentration for an effect of 90% (IC90) of 28700 nM.

Compound `Cn1cnc(S(=O)(=O)Nc2cccc(C(c3c(O)cc(C(CC4CC4)CC4CC4)oc3=O)C3CC3)c2)c1` (single isomer, unassigned; enantiomer 1) gave a 90% effect concentration (IC90) in assay [2] of 10400 nM.

In turn, `CCC(Cc1ccccc1)c1cc(O)c(C(c2cccc(NS(=O)(=O)c3cn(C)cn3)c2)C2CC2)c(=O)o1` (single isomer, unassigned; diastereomer 1) [listing 2 of 2 here] showed an IC90 in assay [2] of 4500 nM.

In turn, `CCC(Cc1ccccc1)c1cc(O)c(C(c2cccc(NS(=O)(=O)c3cn(C)cn3)c2)C2CC2)c(=O)o1` (single isomer, unassigned; diastereomer 3) [listing 2 of 2 here] registered an inhibition constant Ki in assay [1] of 1.9 nM.

In assay [3], `COc1c(C(O)c2ccccc2)c(=O)oc2ccccc12` (stereo not given) displayed an inhibition constant (Ki) of 1 nM.
